The source of these data is ChEMBL document CHEMBL1201862, “PubChem BioAssay data set” (2004).

What all share (assay): NCI-60 cell line screen, 48 h
The test system of assay [1] is SK-MEL-28.
Assay [2] has as its system Malme-3M.
The test system of assay [3] is HOP-62.
For assay [4], the system named is SN12C.
Assay [5] deals with OVCAR-4.
The test system of assay [6] is HCT-116.
Assay [7] concerns SK-MEL-5.
Assay [8] relates to MOLT-4.
The subject of assay [9] is UACC-62.
Assay [10] concerns SR.
In assay [11] the test system is SNB-75.
Assay [12] has as its system RXF 393.
For assay [13], the system named is HCC 2998.
In assay [14] the test system is MDA-MB-231.
The subject of assay [15] is SK-OV-3.
In assay [16] the test system is OVCAR-3.
Assay [17] has as its system DMS-114.
The subject of assay [18] is DLD-1.
For assay [19], the system named is DMS-273.
The subject of assay [20] is KM-20L2.

SMILES strings stand for the structures.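 Method: 48-hour compound exposure of cells in 96-well plates, five concentrations, linear interpolation of endpoints. Here, GI50 denotes the concentration required for 50% inhibition of growth.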 The source made the active and inactive calls. Cut-off read from the data, not from the text of the source: active = GI50 up to about 1.1 µM and inactive = higher.

As for `Nc1ccc(N(S(=O)(=O)c2ccccc2)S(=O)(=O)c2ccccc2)c(Cl)c1`, the GI50 is 68.9 µM (inactive) in assay [1]; 42.5 µM (inactive) in assay [2]; 63.8 µM (inactive) in assay [3]; 75.9 µM (inactive) in assay [4]; 75.3 µM (inactive) in [5]; 55.2 µM (inactive) in assay [6]. The GI50 in assay [7] was 20.1 µM (inactive); in [8], 14.2 µM (inactive); in assay [9] it was 24.8 µM (inactive); in [10], 57.3 µM (inactive); in assay [11], 42.2 µM (inactive); in [12] it was > 100 µM (inactive). In addition, the GI50 is 18.5 µM (inactive) in assay [13] and 98.2 µM (inactive) in assay [14].

As to `CC(C)(C)/N=c1/n(C(C)(C)C)oc(=O)n1C(C)(C)C`, the GI50 in assay [1], in assay [2], in assay [3], in [4], in assay [15] and in assay [5] was > 100 µM (inactive) throughout. Further, the GI50 in [16], in assay [6], in assay [7], in [8], in [9] and in assay [10] was > 100 µM (inactive) each time. Besides, the GI50 is 99.5 µM (inactive) in assay [11], > 100 µM (inactive) in [12], > 100 µM (inactive) in assay [13] and > 100 µM (inactive) in assay [14].

`CC(C)CC(N)C(=O)NC(CNC(CCC(N)=O)C(=O)NC(CC(C)C)C(=O)NC(CC(C)C)C(=O)O)Cc1ccc2ccccc2c1` (stereo unspecified): the GI50 in [1], in assay [2], in assay [3], in [4], in assay [15] and in assay [5] was > 10 µM (inactive) in each case. The GI50 in assay [16], in assay [6], in assay [7], in assay [8], in [9] and in assay [10] was > 10 µM (inactive) throughout. The GI50 in assay [11], in assay [12], in assay [13] and in [14] was > 10 µM (inactive) throughout.

As for `CN(C)c1ccc(C2CC(=O)CC(c3ccc(N(C)C)cc3)C23C(=O)NC(=O)NC3=O)cc1` (stereo unspecified), the GI50 was > 25 µM (inactive) in [1]; 8.73 µM (inactive) in [2]; 18.2 µM (inactive) in assay [3]; > 25 µM (inactive) in assay [4]; > 25 µM (inactive) in assay [5]; > 25 µM (inactive) in assay [16]. Moreover, the GI50 was > 25 µM (inactive) in [6]; > 25 µM (inactive) in [7]; 0.0025 µM (active) in [8]; 19.5 µM (inactive) in [9]; > 25 µM (inactive) in [10]; 9.79 µM (inactive) in [11]. For the same molecule, the GI50 in [12] was 15.8 µM (inactive); in [13], > 25 µM (inactive); in [14], > 25 µM (inactive).

As for `O=C/C(=C1/C=Cc2cc([N+](=O)[O-])ccc2S1)c1ccccc1`, the GI50 in [1], in assay [2], in [3], in assay [4], in assay [15] and in [5] was > 100 µM (inactive) each time. In addition, the GI50 is > 100 µM (inactive) in [16]; > 100 µM (inactive) in [6]; > 100 µM (inactive) in assay [7]; > 100 µM (inactive) in [8]; > 100 µM (inactive) in [10]; 25.1 µM (inactive) in [11]. Also, the GI50 in assay [12], in assay [13] and in assay [14] was > 100 µM (inactive) each time.

Consider `COc1ccc(C2c3cc4c(cc3OC(NCCO)C2C)OCO4)cc1` (stereo unspecified), for which the GI50 was 25.1 µM (inactive) in assay [1]; 18.7 µM (inactive) in assay [2]; 29.8 µM (inactive) in assay [3]; 23.8 µM (inactive) in [4]; 38.1 µM (inactive) in [15]; 17.8 µM (inactive) in assay [16]. The GI50 in [6] is 17.3 µM (inactive); in [7], 19.8 µM (inactive); in [8] it was 16.6 µM (inactive); in [9], 28.2 µM (inactive); in assay [10], 19 µM (inactive); in assay [11], 19.6 µM (inactive). In addition, the GI50 is 23.2 µM (inactive) in [12], 26.5 µM (inactive) in assay [13] and 26.9 µM (inactive) in [14].

Regarding `CN(C)CCCNC(=O)N/N=C/c1ccccc1`, the GI50 in assay [1], in assay [2], in [4], in assay [15], in assay [17] and in assay [16] was > 100 µM (inactive) in each case. The GI50 in assay [6], in assay [7], in [8], in assay [18], in assay [9] and in [11] was > 100 µM (inactive) throughout. The GI50 in [19] and in assay [12] was > 100 µM (inactive) throughout.

Consider `COc1ccc(/C=C2\C(=O)N(C(=O)c3ccc(NC(C)=O)cc3)N=C2C)cc1`, for which the GI50 in [1], in assay [2], in assay [3], in [4], in assay [5] and in assay [17] was > 100 µM (inactive) each time. Further, the GI50 in assay [16] was > 100 µM (inactive); in assay [6], > 100 µM (inactive); in assay [7] it was > 100 µM (inactive); in [8], > 100 µM (inactive); in [18], > 10 µM (inactive); in assay [10] it was > 100 µM (inactive). The GI50 in assay [11], in assay [19] and in [13] was > 100 µM (inactive) in each case.

Regarding `CC1=NN(C(=O)c2ccccc2O)C(=O)/C1=C/c1c(O)ccc2ccccc12`, the GI50 in assay [1] is 1.69 µM (inactive); in assay [2] it was 1.52 µM (inactive); in [3] it was 0.944 µM (active); in assay [4], 1.22 µM (inactive); in assay [20], 4.59 µM (inactive); in [15], 0.741 µM (active). Besides, the GI50 in [5] was 0.468 µM (active); in [17], 0.219 µM (active); in [16] it was 0.201 µM (active); in [6] it was 0.689 µM (active); in assay [7], 1.19 µM (inactive); in assay [8], 1.8 µM (inactive). For the same molecule, the GI50 in assay [9] is 0.287 µM (active); in assay [10], 0.364 µM (active); in [11] it was 2.42 µM (inactive); in assay [12], 0.787 µM (active); in assay [13], 12.9 µM (inactive); in [14], 3.97 µM (inactive).

Take `CCCCN(C(=O)c1ccccc1)C1CCC(=O)c2[nH]c3ccccc3c21` (stereo unspecified): the GI50 in [1] is 90.2 µM (inactive); in [2], 55 µM (inactive); in assay [3], 40.4 µM (inactive); in [4], 57.1 µM (inactive); in assay [15] it was 61.1 µM (inactive); in assay [5] it was 26.7 µM (inactive). Further, the GI50 in assay [16] was 64.7 µM (inactive); in assay [6], 24.7 µM (inactive); in [7], 18.7 µM (inactive); in assay [8], 32.8 µM (inactive); in assay [9], 25 µM (inactive); in assay [10], 11.2 µM (inactive). In addition, the GI50 is 0.481 µM (active) in [11], 25.8 µM (inactive) in [12], 34.4 µM (inactive) in assay [13] and 23.7 µM (inactive) in assay [14].

For the molecule `O=[N+]([O-])c1cccc2nccc(NCC(O)CO)c12` (stereo unspecified), the GI50 was 15.7 µM (inactive) in [1]; 14.4 µM (inactive) in assay [2]; 17.6 µM (inactive) in assay [3]; 16 µM (inactive) in [4]; 25.4 µM (inactive) in [15]; 18.5 µM (inactive) in [5]. Besides, the GI50 in assay [16] was 15.5 µM (inactive); in assay [6], 13.4 µM (inactive); in assay [7], 13.1 µM (inactive); in assay [8], 9.55 µM (inactive); in [9], 15 µM (inactive); in assay [10], 5.06 µM (inactive). Further, the GI50 in assay [11] was 22.8 µM (inactive); in assay [12] it was 11.6 µM (inactive); in [13], 13.1 µM (inactive); in [14], 11.5 µM (inactive).

Regarding `CCOC(=O)C(=Cn1c(=S)[nH]c2ccc([N+](=O)[O-])cc21)C(=O)OCC`, the GI50 in [1], in assay [2], in [3], in assay [4], in [15] and in assay [5] was > 100 µM (inactive) throughout. For the same molecule, the GI50 in [16], in assay [6], in [7], in assay [8], in assay [9] and in [10] was > 100 µM (inactive) each time. Also, the GI50 in assay [11] is 47.9 µM (inactive); in assay [12], > 100 µM (inactive); in assay [13], > 100 µM (inactive); in assay [14], > 100 µM (inactive).
